According to article PMC10700596 (Nature Communications, 2023):
Where “and” joins values, the source holds several entries; their conditions need not be identical. Equal values may be shown once. Read-outs that look alike come from different tables or passages of the source.

Experiment: in vivo
Assay type: in vivo, mice
Details: mice; for concentration at 5 min / concentration at 15 min / concentration at 30 min / concentration at 60 min / concentration at 120 min / concentration at 240 min / concentration at 360 min / concentration at 480 min / concentration at 1440 min / CSF concentration, Final (individual sample) / Brain concentration, Final (individual sample) / Plasma concentration, Final (individual sample): 10 mg/kg, IP 10 mg/kg

concentration at 5 min (male, CD-1, mouse, CSF, ip, CSF, 5 min, mean of 3, read-out: CSF concentration C (mean)): 0.00911 µg/mL
concentration at 15 min (male, CD-1, mouse, CSF, ip, CSF, 15 min, individual animals, read-out: CSF concentration, Final (individual sample)): 0.00121 µg/mL
concentration at 15 min (male, CD-1, mouse, CSF, ip, CSF, 15 min, mean of 3, read-out: CSF concentration C (mean)): 0.0017 µg/mL
concentration at 30 min (male, CD-1, mouse, CSF, ip, CSF, 30 min, mean of 3, read-out: CSF concentration C (mean)): 0.00394 µg/mL
concentration at 60 min (male, CD-1, mouse, CSF, ip, CSF, 60 min, mean of 3, read-out: CSF concentration C (mean)): 0.00035 µg/mL
concentration at 120 min (male, CD-1, mouse, CSF, ip, CSF, 120 min, mean of 3, read-out: CSF concentration C (mean)): 0.00136 µg/mL
concentration at 240 min (male, CD-1, mouse, CSF, ip, CSF, 240 min, individual animals, read-out: CSF concentration, Final (individual sample)): 0 µg/mL
concentration at 240 min (male, CD-1, mouse, CSF, ip, CSF, 240 min, mean of 3, read-out: CSF concentration C (mean)): 0 µg/mL
concentration at 360 min (male, CD-1, mouse, CSF, ip, CSF, 360 min, individual animals, read-out: CSF concentration, Final (individual sample)): 0 µg/mL
concentration at 360 min (male, CD-1, mouse, CSF, ip, CSF, 360 min, mean of 3, read-out: CSF concentration C (mean)): 0 µg/mL
concentration at 480 min (male, CD-1, mouse, CSF, ip, CSF, 480 min, mean of 3, read-out: CSF concentration C (mean)): 0.0004 µg/mL
concentration at 1440 min (male, CD-1, mouse, CSF, ip, CSF, individual animals, read-out: CSF concentration, Final (individual sample)): 0 µg/mL
concentration at 1440 min (male, CD-1, mouse, CSF, ip, CSF, mean of 3, read-out: CSF concentration C (mean)): 0 µg/mL
concentration at 5 min (male, CD-1, mouse, brain, ip, brain, 5 min, individual animals, read-out: Brain concentration, Final (individual sample)): 20.4 ng/g
concentration at 5 min (male, CD-1, mouse, brain, ip, brain, 5 min, mean of 3, read-out: Brain concentration C (mean)): 21.9 ng/g
concentration at 15 min (male, CD-1, mouse, brain, ip, brain, 15 min, mean of 3, read-out: Brain concentration C (mean)): 14.9 ng/g
concentration at 30 min (male, CD-1, mouse, brain, ip, brain, 30 min, individual animals, read-out: Brain concentration, Final (individual sample)): 11.3 ng/g
concentration at 30 min (male, CD-1, mouse, brain, ip, brain, 30 min, mean of 3, read-out: Brain concentration C (mean)): 11.1 ng/g
concentration at 60 min (male, CD-1, mouse, brain, ip, brain, 60 min, mean of 3, read-out: Brain concentration C (mean)): 6.66 ng/g
concentration at 120 min (male, CD-1, mouse, brain, ip, brain, 120 min, individual animals, read-out: Brain concentration, Final (individual sample)): 0 ng/g
concentration at 120 min (male, CD-1, mouse, brain, ip, brain, 120 min, mean of 3, read-out: Brain concentration C (mean)): 0 ng/g
concentration at 240 min (male, CD-1, mouse, brain, ip, brain, 240 min, individual animals, read-out: Brain concentration, Final (individual sample)): 0 ng/g
concentration at 240 min (male, CD-1, mouse, brain, ip, brain, 240 min, mean of 3, read-out: Brain concentration C (mean)): 0 ng/g
concentration at 360 min (male, CD-1, mouse, brain, ip, brain, 360 min, individual animals, read-out: Brain concentration, Final (individual sample)): 0 ng/g
concentration at 360 min (male, CD-1, mouse, brain, ip, brain, 360 min, mean of 3, read-out: Brain concentration C (mean)): 0 ng/g
concentration at 480 min (male, CD-1, mouse, brain, ip, brain, 480 min, individual animals, read-out: Brain concentration, Final (individual sample)): 0 ng/g
concentration at 480 min (male, CD-1, mouse, brain, ip, brain, 480 min, mean of 3, read-out: Brain concentration C (mean)): 0 ng/g
concentration at 1440 min (male, CD-1, mouse, brain, ip, brain, individual animals, read-out: Brain concentration, Final (individual sample)): 0 ng/g
concentration at 1440 min (male, CD-1, mouse, brain, ip, brain, mean of 3, read-out: Brain concentration C (mean)): 0 ng/g
concentration at 5 min (male, CD-1, mouse, plasma, ip, plasma, 5 min, individual animals, read-out: Plasma concentration, Final (individual sample)): 0.546 µg/mL
concentration at 5 min (male, CD-1, mouse, plasma, ip, plasma, 5 min, mean of 3, read-out: Plasma concentration C (mean)): 0.609 µg/mL
concentration at 15 min (male, CD-1, mouse, plasma, ip, plasma, 15 min, mean of 3, read-out: Plasma concentration C (mean)): 0.834 µg/mL
concentration at 30 min (male, CD-1, mouse, plasma, ip, plasma, 30 min, mean of 3, read-out: Plasma concentration C (mean)): 0.734 µg/mL
concentration at 60 min (male, CD-1, mouse, plasma, ip, plasma, 60 min, mean of 3, read-out: Plasma concentration C (mean)): 0.393 µg/mL
concentration at 120 min (male, CD-1, mouse, plasma, ip, plasma, 120 min, mean of 3, read-out: Plasma concentration C (mean)): 0.304 µg/mL
concentration at 240 min (male, CD-1, mouse, plasma, ip, plasma, 240 min, mean of 3, read-out: Plasma concentration C (mean)): 0.0311 µg/mL
concentration at 360 min (male, CD-1, mouse, plasma, ip, plasma, 360 min, mean of 3, read-out: Plasma concentration C (mean)): 0.0112 µg/mL
concentration at 480 min (male, CD-1, mouse, plasma, ip, plasma, 480 min, individual animals, read-out: Plasma concentration, Final (individual sample)): 0 µg/mL
concentration at 480 min (male, CD-1, mouse, plasma, ip, plasma, 480 min, mean of 3, read-out: Plasma concentration C (mean)): 0 µg/mL
concentration at 1440 min (male, CD-1, mouse, plasma, ip, plasma, individual animals, read-out: Plasma concentration, Final (individual sample)): 0 µg/mL
concentration at 1440 min (male, CD-1, mouse, plasma, ip, plasma, mean of 3, read-out: Plasma concentration C (mean)): 0 µg/mL
Cmax (male, CD-1, mouse, plasma, ip, 10 mg/kg i.p.): 0.834 µg/mL
AUC (male, CD-1, mouse, plasma, ip, 10 mg/kg i.p., read-out: plasma AUC (converted)): 1.34 µg·h/mL
CSF concentration, Final (individual sample) (CSF, 5 min, individual animals): 0 ng/mL and 11.4 ng/mL and 16.0 ng/mL
CSF concentration, Final (individual sample) (CSF, 15 min, individual animals): 2.26 ng/mL and 1.62 ng/mL
CSF concentration, Final (individual sample) (CSF, 30 min, individual animals): 2.31 ng/mL and 1.36 ng/mL and 8.16 ng/mL
CSF concentration, Final (individual sample) (CSF, 60 min, individual animals): 1.05 ng/mL and 0 ng/mL
CSF concentration, Final (individual sample) (CSF, 120 min, individual animals): 4.07 ng/mL and 0 ng/mL
CSF concentration, Final (individual sample) (CSF, 480 min, individual animals): 1.20 ng/mL and 0 ng/mL
Brain concentration, Final (individual sample) (brain, 5 min, individual animals): 29.4 ng/g and 15.9 ng/g
Brain concentration, Final (individual sample) (brain, 15 min, individual animals): 15.1 ng/g and 20.3 ng/g and 9.28 ng/g
Brain concentration, Final (individual sample) (brain, 30 min, individual animals): 9.04 ng/g and 12.8 ng/g
Brain concentration, Final (individual sample) (brain, 60 min, individual animals): 7.24 ng/g and 0 ng/g and 12.8 ng/g
Plasma concentration, Final (individual sample) (plasma, 5 min, individual animals): 0.525 µg/mL and 0.757 µg/mL
Plasma concentration, Final (individual sample) (plasma, 15 min, individual animals): 1.131 µg/mL and 0.825 µg/mL and 0.545 µg/mL
Plasma concentration, Final (individual sample) (plasma, 30 min, individual animals): 0.543 µg/mL and 0.519 µg/mL and 1.14 µg/mL
Plasma concentration, Final (individual sample) (plasma, 60 min, individual animals): 0.539 µg/mL and 0 µg/mL and 0.64 µg/mL
Plasma concentration, Final (individual sample) (plasma, 120 min, individual animals): 0.446 µg/mL and 0.153 µg/mL and 0.313 µg/mL
Plasma concentration, Final (individual sample) (plasma, 240 min, individual animals): 0.0336 µg/mL and 0.042 µg/mL and 0.0177 µg/mL
Plasma concentration, Final (individual sample) (plasma, 360 min, individual animals): 0 µg/mL and 0.034 µg/mL
Structure (SMILES): CCc1nc2c(C)nc(C)cc2n1-c1ccc(CCNC(=O)NS(=O)(=O)c2ccc(C)cc2)cc1 [Grapiprant, reference compound]
